Test results reported in PubChem BioAssay AID1963851 (Molecular Pharmacology Branch, DTP, NCI, 2024).

System: 188146-221-R-J1-PDC complex spheroid viability
Assay: Anticancer human tumor 188146-221-R-J1-PDC patient-derived colon adenocarcinoma cell line growth inhibition [POLQ]
Settings: for IC50: curve of first compound; for viability, T/C: stronger effect = lower value
How it was run: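 Complex spheroid viability model combining PDC tumour cells with endothelial (HUVEC) and MSC stromal cells. Novobiocin, ART-558 or RP6685 were tested singly and in combination with standard and investigational anticancer drugs. Each was titrated in half-log steps from near clinical Cmax, or from 10 microM where Cmax was unknown.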

[1] = second compound 0.0316 µM, first compound 0.0316 µM
[2] = second compound 0.0316 µM, first compound 0.1 µM
[3] = second compound 0.0316 µM, first compound 0.316 µM
[4] = second compound 0.0316 µM, first compound 1 µM
[5] = second compound 0.0316 µM, first compound 3.16 µM
[6] = second compound 0.0316 µM, first compound 10 µM
[7] = second compound 0.1 µM, first compound 0.0316 µM
[8] = second compound 0.1 µM, first compound 0.1 µM
[9] = second compound 0.1 µM, first compound 0.316 µM
[10] = second compound 0.1 µM, first compound 1 µM
[11] = second compound 0.1 µM, first compound 3.16 µM
[12] = second compound 0.1 µM, first compound 10 µM
[13] = second compound 0.316 µM, first compound 0.0316 µM
[14] = second compound 0.316 µM, first compound 0.1 µM
[15] = second compound 0.316 µM, first compound 0.316 µM
[16] = second compound 0.316 µM, first compound 1 µM
[17] = second compound 0.316 µM, first compound 3.16 µM
[18] = second compound 0.316 µM, first compound 10 µM
[19] = second compound 1 µM, first compound 0.0316 µM
[20] = second compound 1 µM, first compound 0.1 µM
[21] = second compound 1 µM, first compound 0.316 µM
[22] = second compound 1 µM, first compound 1 µM
[23] = second compound 1 µM, first compound 3.16 µM
[24] = second compound 1 µM, first compound 10 µM
[25] = second compound 3.16 µM, first compound 0.0316 µM
[26] = second compound 3.16 µM, first compound 0.1 µM
[27] = second compound 3.16 µM, first compound 0.316 µM
[28] = second compound 3.16 µM, first compound 1 µM
[29] = second compound 3.16 µM, first compound 3.16 µM
[30] = second compound 3.16 µM, first compound 10 µM
[31] = second compound 10 µM, first compound 0.0316 µM
[32] = second compound 10 µM, first compound 0.1 µM
[33] = second compound 10 µM, first compound 0.316 µM
[34] = second compound 10 µM, first compound 1 µM
[35] = second compound 10 µM, first compound 3.16 µM
[36] = second compound 10 µM, first compound 10 µM
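Further: spheroids exposed to compounds for seven days.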
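Wherever viability, T/C is given: 100% = DMSO vehicle control viability.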

## CC1COCCN1c1cc(C2(O)CC3CCC(C2)O3)c2cnn(-c3ccn[nH]3)c2n1 (centres undefined) + Cc1cccc(N(C)C(=O)C2C(O)CCN2c2nc(C)cc(C(F)(F)F)c2C#N)c1
Second compound 0.0316 µM
  IC50: 422 nM
Second compound 0.1 µM
  IC50: 322 nM
Second compound 0.316 µM
  IC50: 365 nM
Second compound 1 µM
  IC50: 426 nM
Second compound 3.16 µM
  IC50: 259 nM
Second compound 10 µM
  IC50: 190 nM
[1]
  viability, T/C: 83.2%
[2]
  viability, T/C: 67.8%
[3]
  viability, T/C: 61.5%
[4]
  viability, T/C: 27.6%
[5]
  viability, T/C: 19.2%
[6]
  viability, T/C: 7.58%
[7]
  viability, T/C: 95.3%
[8]
  viability, T/C: 75.7%
[9]
  viability, T/C: 51.1%
[10]
  viability, T/C: 26.6%
[11]
  viability, T/C: 16.8%
[12]
  viability, T/C: 7.79%
[13]
  viability, T/C: 91.9%
[14]
  viability, T/C: 80.2%
[15]
  viability, T/C: 52.4%
[16]
  viability, T/C: 27.4%
[17]
  viability, T/C: 17.4%
[18]
  viability, T/C: 9.2%
[19]
  viability, T/C: 89.2%
[20]
  viability, T/C: 71.9%
[21]
  viability, T/C: 56.1%
[22]
  viability, T/C: 36%
[23]
  viability, T/C: 19.2%
[24]
  viability, T/C: 7.67%
[25]
  viability, T/C: 94.8%
[26]
  viability, T/C: 68.4%
[27]
  viability, T/C: 46.4%
[28]
  viability, T/C: 27.3%
[29]
  viability, T/C: 22.8%
[30]
  viability, T/C: 8.6%
[31]
  viability, T/C: 80.7%
[32]
  viability, T/C: 60.3%
[33]
  viability, T/C: 43.4%
[34]
  viability, T/C: 24%
[35]
  viability, T/C: 23.9%
[36]
  viability, T/C: 9.35%

## O=C(Nc1ccc(O)c(NS(=O)(=O)c2ccc(F)cc2)c1)c1ccc(-c2ccccc2)cc1 + Cc1cccc(N(C)C(=O)C2C(O)CCN2c2nc(C)cc(C(F)(F)F)c2C#N)c1
Second compound 0.0316 µM
  IC50: > 10000 nM
Second compound 0.1 µM
  IC50: > 10000 nM
Second compound 0.316 µM
  IC50: > 10000 nM
Second compound 1 µM
  IC50: > 10000 nM
Second compound 3.16 µM
  IC50: > 10000 nM
Second compound 10 µM
  IC50: > 10000 nM
[1]
  viability, T/C: 100%
[2]
  viability, T/C: 103%
[3]
  viability, T/C: 109%
[4]
  viability, T/C: 107%
[5]
  viability, T/C: 100%
[6]
  viability, T/C: 50.2%
[7]
  viability, T/C: 103%
[8]
  viability, T/C: 92.1%
[9]
  viability, T/C: 93.5%
[10]
  viability, T/C: 87.8%
[11]
  viability, T/C: 106%
[12]
  viability, T/C: 60.6%
[13]
  viability, T/C: 102%
[14]
  viability, T/C: 98.1%
[15]
  viability, T/C: 103%
[16]
  viability, T/C: 80.2%
[17]
  viability, T/C: 83.2%
[18]
  viability, T/C: 75.2%
[19]
  viability, T/C: 98.5%
[20]
  viability, T/C: 90.9%
[21]
  viability, T/C: 92.6%
[22]
  viability, T/C: 86.9%
[23]
  viability, T/C: 84.1%
[24]
  viability, T/C: 65.2%
[25]
  viability, T/C: 96%
[26]
  viability, T/C: 92.3%
[27]
  viability, T/C: 89.5%
[28]
  viability, T/C: 99%
[29]
  viability, T/C: 90.2%
[30]
  viability, T/C: 52.1%
[31]
  viability, T/C: 92.3%
[32]
  viability, T/C: 91.3%
[33]
  viability, T/C: 101%
[34]
  viability, T/C: 87.3%
[35]
  viability, T/C: 79.6%
[36]
  viability, T/C: 51.2%
